Source: US20230250262A1, “CELLULOSIC PARTICLE” (FUJIFILM Business Innovation Corp., priority 2022, published 2023)
Counter-ions that a name gives are not always drawn.

Assay: Octanol/water partition coefficient (O/W coefficient) of the second component
Conditions: 1-octanol/water 1/1 by mass; value of the second component species
Experimental: In this context, the octanol/water partition coefficient is a value calculated through the following.
A sample is dissolved in a mixture of octanol and water in a ratio by mass of 1/1, and the concentration of the substance in the octanol (Co) and the concentration of the substance in the water (Cw) are measured; then the octanol/water partition coefficient (O/W coefficient) is calculated according to equation (1) below.
O/W coefficient=Log(Co/Cw) (1)
The concentration of the substance in the octanol (Co) and the concentration of the substance in the water (Cw) are measured as follows.
The OECD test guideline is followed. More specifically, a sample is dissolved in a mixture of 1-octanol and water in a ratio by mass of 1/1, and the resulting solution is centrifuged until it completely separates into two layers. From the 1-octanol layer, an appropriate amount of octanol solution is pipetted. The tip of a syringe, into which air has been drawn in advance, is inserted into the water layer through the 1-octanol layer while the air is ejected, and the aqueous solution is sampled quickly.
For each solution, the test concentration is determined using an ion chromatograph (Metrohm, 930 Compact IC).

Structure (SMILES) | Second component Octanol/water partition coefficient
CCCCCCCCCCCCCCCCCC(=O)N(CCO)CCO [Add21, stearic acid diethanolamide] | 11
CCCCCCCCCCCC(=O)NCC(C)O (stereo not shown) [Add22, lauric acid monoisopropanolamide] | 4
CCCCCCC(CCCC)(CCCC)Cc1ccc(O)cc1 [Add33, 4-2,2-dibutyl-octylphenol] | 21
CCCCCCCC/C=C\CCCCCCCC(=O)N(CCO)CCO [Add1, oleic acid diethanolamide] | 6

Same assay, conditions: 1-octanol/water (1/1 by mass)

Structure (SMILES) | logP
CCCCCCCCCCCCc1ccc(O)cc1 [Add32, 4-dodecylphenol] | 5
CCOC(=O)CC(O)(CC(=O)OCC)C(=O)OCC [Add10, triethyl citrate, reference compound] | 0.9
CC(C)COC(=O)CCCCC(=O)OCC(C)C [Add11, diisobutyl adipate, reference compound] | 4
